Assay results taken from patent US20100210649A1, “PYRIDAZINONES AND FURAN-CONTAINING COMPOUNDS” (Sloan-Kettering Institute for Cancer Research, priority 2006, published 2010).
Values joined by “and” are separate entries in the source; they are usually repeats but may differ in a detail not shown here. Equal values may be shown once. Read-outs that look alike come from different tables or passages of the source.

Legend:
PC9 = assay: Dose response study (Alamar Blue), PC9; type: cell-based; conditions: Homo sapiens, read-out: IC50 PC9
Experimental: (§1) Dose response studies against 34 compounds from the pyridazinone and phenylfuran-carboxamide class were conducted. […] In addition, Tarceva was included in these dose response studies.
(§2) The dose response studies were done with the following standard procedure. First, the cells were counted and dispensed at 250 cells/well into 384-well microplates with compound. The cells were incubated for 48 hours at 37 C to complete treatment, and then alamar blue was added for an additional 48 hours. Finally, alamar blue reduction was measured and the data was loaded into ORIS, our data screening acquisition platform.

A549 = assay: Dose response study (Alamar Blue), A549; type: cell-based; conditions: Homo sapiens, read-out: IC50 A549
Experimental: as §1, §2

in vitro = conditions: human
Experimental: NHBE (normal human bronchiolar epithelial cells) are primary cells obtained from donor lungs and commercially available from Cambrex. The HPL1D (human peripheral lung epithelial) cell line has been immortalized with the SV40 large T-antigen. WI-38: human lung fibroblast cell line. HPLID, NHBE and WI-38 cells will serve as controls in the chemical screens. WT: wildtype; WT*: over-expressed wildtype.
Compounds were tested in dose response studies from […] to 5 nM against several non small cell lung cancer lines: H358, H827, H1118, H1650, H1734, H1975, H2030, and H3255, and were also studied in a 72 hour cytotoxicity assay against the NHBE and WI-38 cell lines.

H1118 = assay: Non Small Cell Lung Cancer proliferation assay (Alamar Blue reduction), H1118; type: cell-based
Experimental: Non Small Cell Lung Cancer Proliferation Assay. To perform the assay, the Non Small Cell Lung Cancer lines are diluted in media and plated into 384 well microplates at a final density of 250 cells in […]. To ensure consistency and minimal pipetting error, the cells are plated using the Multidrop 384 with the following settings: Rocker Switch set at 384, Volume 45 and Column 24.
Low Controls for this assay are made by treating Non Small Cell Lung Cancer cells with 5 ul of staurosporine at 250 uM in 10% DMSO and 1% SDS. [Final concentration in this assay is 25 uM staurosporine in 1% DMSO and 0.1% SDS.]
(§3) High Controls for this assay are made by treating Non Small Cell Lung Cancer cells with 5 ul of 10% DMSO. [Final concentration in this assay is 1% DMSO].
The remaining wells of the 384 microplate may be treated with different compounds depending on the study. Important Note: All compounds for testing in this assay should be done at the final concentration of 1% DMSO.
(§4) After addition, the cells are placed in cell culture incubator at 37° C. for 48 hours for complete treatment.
After drug treatment, cytotoxicity is measured by Alamar Blue reduction. 5 μL of Alamar Blue is added to the 384 microplates using the Flexdrop.
(§5) The cells are incubated for 48 hours at 37° C. to complete the Alamar Blue reduction.
(§6) The final step in the assay is to measure the amount of Alamar Blue reduction. […] The Alamar Blue fluorescence is measured at an excitation of 530 nm and emission of 590 nm.
(§7) For the NSCLC project, the cell based assay was screened against a small molecule library of approximately 200,000 compounds. The compound library is stored in our automated robotic freezer (Biophile) at −20° C. in 100% DMSO. Compound freeze and thaw cycles are kept to a minimum. Compounds for use are diluted into the appropriate concentration and plated into 384 well microplates using our custom built low volume 384-well head tool (TPS 384, Apricot Designs Inc., CA, USA). This assay was performed on a fully automated linear track robotic platform (CRS F3 Robot System, Thermo Electron Corp., Ontario, Canada) utilizing several integrated peripherals for plate handling, liquid dispensing, and readout detection. First, non-small cell lung cancer cell lines are dispensed into 384 well microplates (Corning #3712 Tissue Culture Treated Plate, Corning, N.Y., USA) with 5 μL of test compounds at 100 uM in 10% DMSO for screening studies or 1 mM in 10% DMSO to 50 nM in 10% DMSO for dose response studies. The microplates are then placed at 37° C. for 48 hours to complete treatment of cells with compounds. Next, 5 ul of alamar blue was added using a liquid dispenser (Flexprop Precision Dispenser, Perkin Elmer, Mass., USA) and incubated for 48 hours at 37° C. The alamar blue prompt fluorescence was measured on Victor V (Victor^3 V, Perkin Elmer, Mass., USA) and output data files were loaded into ORIS (Oncology Research Informatics System, MSKCC, NY, USA), a screening data acquisition and analysis platform.
as §2

H460 = assay: Dose response study (Alamar Blue), H460; type: cell-based; conditions: Homo sapiens, read-out: IC50 H460
Experimental: as §1, §2

H1734 = assay: Non Small Cell Lung Cancer proliferation assay (Alamar Blue reduction), H1734; type: cell-based, human
Experimental: These cells have a doubling time of 1-2 days. All cell types are adherent and grow in colonies. The cells should be kept at a density between 50,000 cells/mL -500,000 cells/mL to provide for optimum growth and adequate nutrition. The cell line should be maintained at 37° C. in a humidified atmosphere with 5% CO2 in a sterile cell culture incubator.
Non Small Cell Lung Cancer Proliferation Assay.
as §3
Important Note: All compounds for testing in this assay should be done at the final concentration of 1% DMSO.
as §4
After drug treatment, cytotoxicity is measured by Alamar Blue reduction.
as §5, §6
as §7, with “Compounds for use are diluted into the appropriate concentration and plated into 384 well microplates using our custom built low volume 384-well head tool (TPS 384, Apricot Designs Inc., CA, USA).” left out, “First, non-small cell lung cancer cell lines are dispensed into 384 well microplates (Corning #3712 Tissue Culture Treated Plate, Corning, N.Y., USA) with 5 μL of test compounds at 100 uM in 10% DMSO for screening studies or 1 mM in 10% DMSO to 50 nM in 10% DMSO for dose response studies.” left out
as §2

[1] = PC-9, PC9, 12 point doubling dilution 10 uM to 5 nM, 48 h treatment, alamar blue additional 48 h
[2] = A549, 12 point doubling dilution 10 uM to 5 nM, 48 h treatment, alamar blue additional 48 h
[3] = Homo sapiens; H1118; 12 point doubling dilution 10 uM to 5 nM; 48 h treatment, alamar blue additional 48 h; read-out: IC50 H1118
[4] = NCI-H460, H460, 12 point doubling dilution 10 uM to 5 nM, 48 h treatment, alamar blue additional 48 h
[5] = Homo sapiens, NCI-H1734, H1734, 12 point doubling dilution 10 uM to 5 nM, 48 h treatment, alamar blue additional 48 h, read-out: IC50 H1734
[6] = Homo sapiens, NCI-H1734, read-out: Dose Response (uM) H1734
[7] = Homo sapiens, 48 h, read-out: IC50 H1118
[8] = Homo sapiens, NCI-H1734, 48 h, H1734, 12 point doubling dilution 10 uM to 5 nM, 48 h treatment, alamar blue additional 48 h, read-out: IC50 H1734
[9] = Homo sapiens; read-out: Dose Response (uM) H1118

O=c1c(Cl)c(Cl)cnn1-c1ccc2c(c1)OCCO2 [compound 267068]
IC50 (PC9; [1]): 880 nM
IC50 (A549; [2]): 1930 nM
IC50 at 72 h (in vitro; CytoTox (uM) NHBE): 1.56 µM
IC50 at 72 h (in vitro; CytoTox (uM) WI-38): 3.96 µM
IC50 (H1118; [3]): 0.48 µM
IC50 (H460; [4]): 1970 nM
IC50 (H1734; [5]): 2.83 µM
IC50 (H1734; [6]): 2.12 µM

COc1cccc(-n2ncc(Br)c(Br)c2=O)c1 [compound 267083]
IC50 (PC9; [1]): 740 nM
IC50 (A549; [2]): 1070 nM
IC50 at 72 h (in vitro; CytoTox (uM) NHBE): 1.85 µM
IC50 at 72 h (in vitro; CytoTox (uM) WI-38): 2.6 µM
IC50 (H1118; [3]): 0.27 µM
IC50 (H460; [4]): 910 nM
IC50 (H1734; [5]): 1.36 µM
IC50 (H1734; [6]): 1.31 µM

Cc1nc2cc(-n3ncc(Cl)c(Cl)c3=O)ccc2s1 [compound 267067]
IC50 (PC9; [1]): > 10000 nM
IC50 (A549; [2]): > 10000 nM
IC50 at 72 h (in vitro; CytoTox (uM) NHBE): > 10 µM
IC50 at 72 h (in vitro; CytoTox (uM) WI-38): > 10 µM
IC50 (H1118; [3]): > 10 µM
IC50 (H460; [4]): > 10000 nM
IC50 (H1734; [5]): > 10 µM
IC50 (H1734; [6]): 2.57 µM

Cc1cc(-n2ncc(Cl)c(Cl)c2=O)ccc1Br [compound 267064]
IC50 (PC9; [1]): > 10000 nM
IC50 (A549; [2]): > 10000 nM
IC50 at 72 h (in vitro; CytoTox (uM) NHBE): 4.04 µM
IC50 at 72 h (in vitro; CytoTox (uM) WI-38): > 10 µM
IC50 (H1118; [3]): > 10 µM
IC50 (H460; [4]): > 10000 nM
IC50 (H1734; [5]): > 10 µM
IC50 (H1734; [6]): 1.21 µM

Cc1ccc(NC(=O)c2ccc([N+](=O)[O-])o2)cc1 [compound 98697]
IC50 (PC9; PC-9, 48 h): 2170 nM
IC50 (A549; A549, 48 h): 1810 nM
IC50 (H1118; [7]): 0.56 µM
IC50 (H460; NCI-H460, 48 h): 2200 nM
IC50 (H1734; [8]): 4.42 µM

O=c1c(Br)c(Br)cnn1-c1ccccc1 [compound 257015]
IC50 (PC9; [1]): 710 nM
IC50 (A549; [2]): 1200 nM
IC50 at 72 h (in vitro; CytoTox (uM) NHBE): 2.38 µM
IC50 at 72 h (in vitro; CytoTox (uM) WI-38): 3.03 µM
IC50 (H1118; [3]): 0.37 µM
IC50 (H1118; [9]): 0.22 µM
IC50 (H460; [4]): 1300 nM
IC50 (H1734; [5]): 1.62 µM
IC50 (H1734; [6]): 0.87 µM

O=c1c(Br)c(Br)cnn1-c1ccccn1 [compound 267073]
IC50 (PC9; [1]): 420 nM
IC50 (A549; [2]): 310 nM
IC50 at 72 h (in vitro; CytoTox (uM) NHBE): 1.33 µM
IC50 at 72 h (in vitro; CytoTox (uM) WI-38): 0.89 µM
IC50 (H1118; [3]): 0.1 µM
IC50 (H460; [4]): 420 nM
IC50 (H1734; [5]): 1.23 µM
IC50 (H1734; [6]): 0.72 µM

CCc1cccc(-n2ncc(Cl)c(Cl)c2=O)c1 [compound 267062]
IC50 (PC9; [1]): 1510 nM
IC50 (A549; [2]): 2810 nM
IC50 at 72 h (in vitro; CytoTox (uM) NHBE): 1.85 µM
IC50 at 72 h (in vitro; CytoTox (uM) WI-38): 6.44 µM
IC50 (H1118; [3]): 0.67 µM
IC50 (H460; [4]): 2880 nM
IC50 (H1734; [5]): 2.89 µM
IC50 (H1734; [6]): 1.75 µM

Cc1cccc(-n2ncc(Cl)c(Cl)c2=O)c1C [compound 257018]
IC50 (PC9; [1]): 1570 nM
IC50 (A549; [2]): 2270 nM
IC50 at 72 h (in vitro; CytoTox (uM) NHBE): 3.89 µM
IC50 at 72 h (in vitro; CytoTox (uM) WI-38): 7.35 µM
IC50 (H1118; [3]): 0.54 µM
IC50 (H1118; [9]): 0.44 µM
IC50 (H460; [4]): 3510 nM
IC50 (H1734; [5]): 2.51 µM
IC50 (H1734; [6]): 2.12 µM

Cc1cccc(NC(=O)c2ccc([N+](=O)[O-])o2)c1 [compound 71762]
IC50 (PC9; [1]): 1890 nM
IC50 (A549; [2]): 1460 nM
IC50 (H1118; [3]): 0.38 µM
IC50 (H460; [4]): 1850 nM
IC50 (H1734; [5]): 4.88 µM

O=C(Nc1ccc(F)c(Cl)c1)c1ccc([N+](=O)[O-])o1 [compound 87200]
IC50 (PC9; [1]): 8670 nM
IC50 (A549; [2]): > 10000 nM
IC50 (H1118; [3]): 4.33 µM
IC50 (H460; [4]): > 10000 nM
IC50 (H1734; [5]): > 10 µM

O=C(Nc1ccc(Cl)cc1)c1ccc([N+](=O)[O-])o1 [compound 98698, 5-nitro-furan-2-carboxylic acid (4-chloro-phenyl)-amide]
IC50 (PC9; PC-9, 48 h): 1580 nM
IC50 (A549; A549, 48 h): 1330 nM
IC50 (H1118; [7]): 0.53 µM
IC50 (H460; NCI-H460, 48 h): 1620 nM
IC50 (H1734; [8]): 3.47 µM

Cc1cccc(-n2ncc(Cl)c(Cl)c2=O)c1 [compound 104122, 4,5-dichloro-2-m-tolyl-2H-pyridazin-3-one]
IC50 (PC9; PC-9, 48 h): 650 nM
IC50 (A549; A549, 48 h): 1450 nM
IC50 (H1118; [7]): 0.34 µM
IC50 (H1118; Homo sapiens, read-out: Dose Response (uM) H1118): 0.11 µM
IC50 (H460; NCI-H460, 48 h): 1560 nM
IC50 (H1734; [8]): 2.14 µM
IC50 (H1734; Homo sapiens, NCI-H1734, dose response 10 M to 5 nM, IC50, read-out: Dose Response (uM) H1734): 2.17 µM
IC50 (H1734; dose response 10 M to 5 nM, IC50, read-out: Dose Response (uM) H1734): 1.17 µM and 2.21 µM and 1.73 µM
